Assay results published in patent US20210038589A1, “USES, COMPOSITIONS AND METHODS” (priority 2018, published 2021).

Tests used:
[1] = system: gamma oscillations in mouse hippocampal slices; assay: Prevention of Aβ-induced degradation of kainate-induced gamma oscillations in hippocampal slices (interface chamber); type: cell-based; conditions: 50 nM Aβ in last 15 min, 100 nM KA
Protocol: Previously we have characterized the effects of acute Aβ on the hippocampal circuitry of WT mice. […] During the last 15 min 50 nM Aβ was added to the incubation solution. […] Control experiments were also performed by incubating slice just with ACSF for 1 h (with Aβ present for the last 15 min) or incubating just with ACSF for 1 h. […] Pmzd 10 μM: 9.95±1.82×10^-9V^2, n=10, p<0.0001 vs Aβ, FIGS. 4A,B,C,F, light and dark green, respectively). […] Horizontal sections (350 μm thick) of the ventral hippocampi of both hemispheres were prepared with a Leica VT1200S vibratome (Leica Microsystems). Immediately after cutting, slices were transferred into a humidified interface holding chamber containing standard ACSF (in mM): 124 NaCl, 30 NaHCO3, 10 glucose, 1.25 NaH2PO4, 3.5 KCl, 1.5 MgCl2, 1.5 CaCl2, continuously supplied with humidified carbogen. The chamber was held at 34° C. during slicing and subsequently allowed to cool down to room temperature ( 22° C.) for a minimum of 1 hour. Recordings were carried out in hippocampal area CA3 with borosilicate glass microelectrodes, pulled to a resistance of 3-7 MΩ. Local field potential (LFP) were recorded using microelectrodes filled with ACSF placed in CA3 stratum pyramidale. LFP oscillations were elicited by applying kainic acid (100 nM) to the extracellular bath, Interface chamber LFP recordings were performed with a 4-channel […] amplifier (University of Cologne, Germany). Submerged chamber LFP recordings and patch-clamp recordings were performed using a Multiclamp 700B (Molecular Devices, CA, USA). In order to maintain stable LFP oscillations all recordings were performed at 34° C. with a perfusion rate of 3-5 ml per minute of aerated ACSF containing 100 nM Kainate. The oscillations were allowed to stabilize for at least 20 minutes before any recordings were performed. Power spectra density plots (from 60 s long LFP recordings) were calculated in averaged Fourier-segments of 8192 points using Axograph X (Kagi, Berkeley, Calif., USA). […] Coefficient of rhythmicity (Cr) was calculated in order to assess the rhythmicity of gamma oscillations (26, 27) and was defined as Cr=(α-β)/(α+β) were α corresponds to the value of the height of the second peak and β to the first valley in the normalized autocorrelogram. […] Only recordings having Cr≥0.01 were considered rhythmic.

[2] = system: gamma oscillations in mouse hippocampal slices; assay: Rescue of gamma oscillations previously degraded by Aβ in hippocampal slices (submerged chamber); type: cell-based; conditions: Aβ still present
Protocol: Hippocampal slices were placed in a submerged recording chamber where gamma oscillations were induced by bath perfusion of 100 nM KA and allowed to stabilize for 20-30 min. Continuous recordings of LFP gamma oscillations were performed in 4 different conditions (FIG. 5). All groups were initially activated with Kainate. In a control group of slices oscillations were recorded for 40 min after stabilization without any other compound addition (control, n=5, grey). All other groups were perfused with 1 μM Aβ after stabilization of the oscillations for a minimum of 20 min. For these experiments the concentration of Aβ applied was increased to 1 μM in order to overcome the method-dependent lower signal amplitude due to the submerged recording conditions (8).
Hippocampal slices were placed on a submerged recording chamber where gamma oscillations were induced by bath perfusion of 100 nM Kainate and allowed to stabilize for 20-30 minutes. Continuous recordings of LFP gamma oscillations were performed in 3 different conditions. All groups were initially activated with kainate. In a control group of slices oscillations were recorded for 40 minutes after their stabilization without any other compound addiction (control, n=5; see FIG. 5). All the other groups were perfused with Aβ 1 μM after the stabilization of the oscillations for a minimum of 20 minutes.

SMILES: CCN1CCCC1CNC(=O)c1cc(S(N)(=O)=O)ccc1OC (centres unmarked) [Sulpiride]
- gamma oscillation power ([1]; 1 h incubation with 5 μM compound): 2.23±0.52 ×10^−9V^2

SMILES: CC(C)[C@H]1c2ccc(F)cc2CC[C@@]1(CCN(C)CCCc1nc2ccccc2[nH]1)OC(=O)C1CC1 [NNC55-0396]
- gamma power after treatment application, relative to Aβ ([2]; 10 μM compound applied after 20 min of 1 μM Aβ): 1.85±0.15 of Aβ

SMILES: CC1CCN(CC[C@H]2CCCN2S(=O)(=O)c2cccc(O)c2)CC1 [SB-269970, ®-3-(2-(2-(4-methylpiperidin-1-yl)ethil)pyrrolidine-1-sulfonyl) phenol]
- gamma oscillation power ([1]; 1 h incubation with 1 μM compound): 1.47±0.24 ×10^−9V^2

SMILES: CC(C)(C)CCN1C[C@@H]2[C@@H](CNC(=O)c3cc(Cl)cc(Cl)c3)[C@@H]2C1 [ML-218]
- gamma power after treatment application, relative to Aβ ([2]; 5 μM compound applied after 20 min of 1 μM Aβ): 2.16±0.53 of Aβ

SMILES: Clc1ccc(N2CCN(Cc3c[nH]c4ncccc34)CC2)cc1 [L745,870]
- gamma oscillation power ([1]; 1 h incubation with 500 nM compound): 1.61±0.52 ×10^−9V^2
